# Assay results from ChEMBL document CHEMBL5346904 (Eur J Med Chem, 2023).
# Calls of active or inactive are those of the source. The calls are words filed in the database; no cut-off is given here.
# Experiments:
# [1] = Hemolytic activity in human RBC assessed as hemolysis incubated for 1 hr by absorbance based microplate reader analysis; type: toxicity, cell-based, Erythrocyte; settings: human red blood cells (erythrocytes)
# Staphylococcus aureus = experiment: Antimicrobial activity against Staphylococcus aureus ATCC 9144 assessed as inhibition of bacterial growth incubated for 48 hrs by CLSI based broth microdilution method; type: functional
# Escherichia coli [2] = experiment: Antimicrobial activity against Escherichia coli ATCC 25922 assessed as inhibition of bacterial growth incubated for 48 hrs by CLSI based broth microdilution method; type: functional
# Pseudomonas aeruginosa = experiment: Antimicrobial activity against Pseudomonas aeruginosa ATCC 27853 assessed as inhibition of bacterial growth incubated for 48 hrs by CLSI based broth microdilution method; type: functional
# Bacillus subtilis [3] = experiment: Antimicrobial activity against Bacillus subtilis 168 assessed as inhibition of bacterial growth incubated for 48 hrs by CLSI based broth microdilution method; type: functional
# [4] = Selectivity index, ratio of EC50 for hemolytic activity in human RBC assessed as hemolysis to MIC for antimicrobial activity against Staphylococcus aureus ATCC 9144 assessed as inhibition of bacterial growth; type: toxicity; settings: human red blood cells (erythrocytes), read-out: Selectivity Index
# [5] = Selectivity index, ratio of EC50 for hemolytic activity in human RBC assessed as hemolysis to MIC for antimicrobial activity against Bacillus subtilis 168 assessed as inhibition of bacterial growth; type: toxicity; settings: human red blood cells (erythrocytes), read-out: Selectivity Index
# [6] = Selectivity index, ratio of EC50 for hemolytic activity in human RBC assessed as hemolysis to MIC for antimicrobial activity against Escherichia coli ATCC 25922 assessed as inhibition of bacterial growth; type: toxicity; settings: human red blood cells (erythrocytes), read-out: Selectivity Index
# [7] = Selectivity index, ratio of EC50 for hemolytic activity in human RBC assessed as hemolysis to MIC for antimicrobial activity against Pseudomonas aeruginosa ATCC 27853 assessed as inhibition of bacterial growth; type: toxicity; settings: human red blood cells (erythrocytes), read-out: Selectivity Index
# Cell membrane [8] = experiment: Disruption of membrane integrity in Bacillus subtilis 168 at 25.6 microg/ml measured for 180 sec by luciferase based bioluminescence assay; type: subcellular; settings: dose 25.6 µg/ml
# Cell membrane [9] = experiment: Disruption of inner membrane integrity in Escherichia coli K12 at 51.2 microg/ml measured for 180 sec by luciferase based bioluminescence assay; type: subcellular; settings: dose 51.2 µg/ml
# Cell membrane [10] = experiment: Disruption of membrane integrity in Bacillus subtilis 168 measured for 180 sec by luciferase based bioluminescence assay; type: subcellular; settings: dose 1.6-51.2 µg/ml
# Cell membrane [11] = experiment: Disruption of inner membrane integrity in Escherichia coli K12 at 1.6 to 25.6 microg/ml measured for 3 mins by luciferase based bioluminescence assay; type: subcellular; settings: dose 1.6-25.6 µg/ml
# Cell membrane [12] = experiment: Induction of outer membrane permeabilization in Escherichia coli K12 assessed as increase in fluorescence intensity at 1.6 to 51.2 microg/ml measured for […] by NPN uptake assay; type: subcellular; settings: dose 1.6-51.2 µg/ml
# Cell membrane [13] = experiment: Disruption of inner membrane integrity in Escherichia coli K12 at 51.2 microg/ml measured for 3 mins by luciferase based bioluminescence assay; type: subcellular; settings: dose 51.2 µg/ml
# Cell membrane [14] = experiment: Disruption of membrane integrity in Bacillus subtilis 168 at 25.6 to 51.2 microg/ml measured for 180 sec by luciferase based bioluminescence assay; settings: dose 25.6-51.2 µg/ml
# Escherichia coli [15] = experiment: Antibacterial activity against Escherichia coli K12 assessed as reduction in bacterial viability at 51.2 microg/ml measured for 3 min; type: functional, organism-based; settings: dose 51.2 µg/ml
# Escherichia coli [16] = experiment: Antibacterial activity against Escherichia coli K12 assessed as reduction in bacterial viability at 1.6 to 51.2 microg/ml measured for 3 min; type: functional, organism-based; settings: dose 1.6-51.2 µg/ml
# Cell membrane [17] = experiment: Disruption of outer membrane integrity in Escherichia coli K12 assessed as increase in fluorescence intensity at 51.2 microg/ml measured for 3 mins by NPN uptake assay; type: subcellular; settings: dose 51.2 µg/ml
# Bacillus subtilis [18] = experiment: Antibacterial activity against Bacillus subtilis 168 assessed as reduction in bacterial viability at 1.6 to 51.2 microg/ml measured after 3 min; type: functional, organism-based; settings: dose 1.6-51.2 µg/ml
# Escherichia coli [19] = experiment: Antibacterial activity against Escherichia coli K12 assessed as reduction in bacterial viability measured for 3 min; type: functional, organism-based; settings: dose 1.6-51.2 µg/ml
# Escherichia coli [20] = experiment: Antimicrobial activity against Escherichia coli K12 assessed as inhibition of bacterial growth incubated for 48 hrs by CLSI based broth microdilution method; type: functional
Compound,EC50 at 1 h [1] [µg/mL],MIC (Staphylococcus aureus) [µg/mL],MIC (Escherichia coli [2]) [µg/mL],MIC (Pseudomonas aeruginosa) [µg/mL],MIC (Bacillus subtilis [3]) [µg/mL],selectivity ratio [4],selectivity ratio [5],other results
NCCCCN1C(=O)N(CCCCN)C(Cc2ccc(C(F)(F)F)cc2)(Cc2ccc(C(F)(F)F)cc2)C1=O.O=C(O)C(F)(F)F.O=C(O)C(F)(F)F,> 393,64,> 128,> 128,16,–,–,–
N=C(N)NCCCN1C(=O)N(CCCNC(=N)N)C(Cc2ccc(Br)c(Cl)c2)(Cc2ccc(Br)c(Cl)c2)C1=O,> 467,2,32,64,2,> 234,> 234,–
N=C(N)NCCCN1C(=O)N(CCCNC(=N)N)C(Cc2ccc(C(F)(F)F)cc2)(Cc2ccc(C(F)(F)F)cc2)C1=O.O=C(O)C(F)(F)F.O=C(O)C(F)(F)F,> 421,16,128,> 256,8,–,–,–
NCCCCN1C(=O)N(CCCCN)C(Cc2cc(Br)cc(Br)c2)(Cc2cc(Br)cc(Br)c2)C1=O.O=C(O)C(F)(F)F.O=C(O)C(F)(F)F,364,8,32,32,2,–,–,–
NCCCCN1C(=O)N(CCCCN)C(Cc2ccc(Br)c(Cl)c2)(Cc2ccc(Br)c(Cl)c2)C1=O.O=C(O)C(F)(F)F.O=C(O)C(F)(F)F,> 439,8,64,64,4,> 55,> 110,–
N=C(N)NCCCN1C(=O)N(CCCNC(=N)N)C(Cc2cc(Br)cc(Br)c2)(Cc2cc(Br)cc(Br)c2)C1=O.O=C(O)C(F)(F)F.O=C(O)C(F)(F)F,486,2,16,32,4,243,122,selectivity ratio [6]: 30
NCCCN1C(=O)N(CCCN)C(Cc2ccc(Br)c(Cl)c2)(Cc2ccc(Br)c(Cl)c2)C1=O.O=C(O)C(F)(F)F.O=C(O)C(F)(F)F,368,8,32,32,4,–,–,–
NCCCN1C(=O)N(CCCN)C(Cc2cc(Br)cc(Br)c2)(Cc2cc(Br)cc(Br)c2)C1=O.O=C(O)C(F)(F)F.O=C(O)C(F)(F)F,344,8,16,8,4,43,86,selectivity ratio [6]: 22; selectivity ratio [7]: 43
NCCCN1C(=O)N(CCCN)C(=O)C(Cc2cc(Br)cc(Br)c2)(Cc2cc(Br)cc(Br)c2)C1=O.O=C(O)C(F)(F)F.O=C(O)C(F)(F)F,–,4,8,8,4,–,–,–
N=C(N)NCCCN1C(=O)N(CCCNC(=N)N)C(Cc2ccccc2)(Cc2ccccc2)C1=O.O=C(O)C(F)(F)F.O=C(O)C(F)(F)F,> 353,64,> 256,> 256,128,–,–,–
NCCCN1C(=S)N(CCCN)C(Cc2cc(Br)cc(Br)c2)(Cc2cc(Br)cc(Br)c2)C1=S.O=C(O)C(F)(F)F.O=C(O)C(F)(F)F,385,8,16,32,8,–,–,–
N=C(N)NCCCN1C(=O)N(CCCNC(=N)N)C(Cc2cc(C(F)(F)F)cc(C(F)(F)F)c2)(Cc2cc(C(F)(F)F)cc(C(F)(F)F)c2)C1=O,> 489,4,32,32,2,> 122,> 245,–
NCCCN1C(=O)N(CCCN)C(Cc2cc(C(F)(F)F)cc(C(F)(F)F)c2)(Cc2cc(C(F)(F)F)cc(C(F)(F)F)c2)C1=O.O=C(O)C(F)(F)F.O=C(O)C(F)(F)F,399,16,16,16,8,25,50,selectivity ratio [6]: 25; selectivity ratio [7]: 25
NCCCOc1nc(Cc2cc(Br)cc(Br)c2)c(Cc2cc(Br)cc(Br)c2)n1CCCN.O=C(O)C(F)(F)F.O=C(O)C(F)(F)F,44,2,4,4,2,–,–,–
NCCCN1C(=O)N(CCCN)C(Cc2ccc(C(F)(F)F)cc2)(Cc2ccc(C(F)(F)F)cc2)C1=O.O=C(O)C(F)(F)F.O=C(O)C(F)(F)F,> 379,64,256,> 256,16,–,–,–
NCCCN1C(=O)N(CCCN)C(Cc2ccc(Br)c3ccccc23)(Cc2ccc(Br)c3ccccc23)C1=O.O=C(O)C(F)(F)F.O=C(O)C(F)(F)F,69,4,8,8,4,–,–,–
NCCCn1c(Cc2cc(Br)cc(Br)c2)c(Cc2cc(Br)cc(Br)c2)n(CCCN)c1=O.O=C(O)C(F)(F)F.O=C(O)C(F)(F)F,52,2,4,8,1,–,–,–
N=C(N)NCCCN1C(=O)N(CCCNC(=N)N)C(Cc2ccc(Br)c3ccccc23)(Cc2ccc(Br)c3ccccc23)C1=O.O=C(O)C(F)(F)F.O=C(O)C(F)(F)F,206,2,8,32,2,103,103,selectivity ratio [6]: 26
N=C(N)NCCCCN1C(=O)N(CCCCNC(=N)N)C(Cc2cc(C(F)(F)F)cc(C(F)(F)F)c2)(Cc2cc(C(F)(F)F)cc(C(F)(F)F)c2)C1=O.O=C(O)C(F)(F)F.O=C(O)C(F)(F)F,384,2,8,32,2,192,192,selectivity ratio [6]: 48
N=C(N)NCCCCN1C(=O)N(CCCCNC(=N)N)C(Cc2ccc(Br)c(Cl)c2)(Cc2ccc(Br)c(Cl)c2)C1=O.O=C(O)C(F)(F)F.O=C(O)C(F)(F)F,347,1,8,32,1,347,347,Activity (Cell membrane [8]): Active; Activity (Cell membrane [9]): inactive; selectivity ratio [6]: 43; Activity (Cell membrane [10]): Dose-Dependent Effect; Activity (Cell membrane [11]): inactive; Activity (Cell membrane [12]): Active; Activity (Cell membrane [13]): Active; Activity (Cell membrane [14]): Active; Activity (Escherichia coli [15]): Active; Activity (Escherichia coli [16]): inactive; Activity (Cell membrane [17]): Active; Activity (Bacillus subtilis [18]): Active; Activity (Escherichia coli [19]): Dose-Dependent Effect
N=C(N)NCCCCN1C(=O)N(CCCCNC(=N)N)C(Cc2cc(Br)cc(Br)c2)(Cc2cc(Br)cc(Br)c2)C1=O.O=C(O)C(F)(F)F.O=C(O)C(F)(F)F,206,1,4,16,1,206,206,selectivity ratio [6]: 52; selectivity ratio [7]: 13
NCCCN1C(=O)N(CCCN)C(Cc2ccccc2)(Cc2ccccc2)C1=O.O=C(O)C(F)(F)F.O=C(O)C(F)(F)F,> 311,> 256,> 256,> 256,256,–,–,–
N=C(N)NCCCCN1C(=O)N(CCCCNC(=N)N)C(Cc2ccc(C(F)(F)F)cc2)(Cc2ccc(C(F)(F)F)cc2)C1=O.O=C(O)C(F)(F)F.O=C(O)C(F)(F)F,> 503,4,64,> 128,4,–,–,–
N=C(NCCCCCCNC(=N)NC(=N)Nc1ccc(Cl)cc1)NC(=N)Nc1ccc(Cl)cc1 [CHLORHEXIDINE],–,–,–,–,1.5,–,–,MIC (Escherichia coli [20]): 1.5 µg/mL
NCCCCN1C(=O)N(CCCCN)C(Cc2cc(C(F)(F)F)cc(C(F)(F)F)c2)(Cc2cc(C(F)(F)F)cc(C(F)(F)F)c2)C1=O.O=C(O)C(F)(F)F.O=C(O)C(F)(F)F,> 461,16,64,64,4,–,–,–
